This note sets out measurements from patent publication US20070275968A1, “Substituted Biphenyl Derivative” (priority 2004, published 2007).

For one series, the system named is NRK-49F cells. Kind of series: Collagen synthesis inhibition test. The class given is cell-based. Conditions: 25 ng/mL TGF-β added, cultured about 44 hr, 3H-labeled proline taken into collagen, no TGF-β = 100% inhibition, no test compound = 0% inhibition, read-out: Collagen synthesis inhibiting activity IC50. Here is the method:
Collagen Synthesis Inhibition Test
Collagen synthesis inhibiting activity was evaluated by the following assay.
NRK-49F cells (Dainippon Pharmaceutical) are seeded into a 96-well plate. After becoming confluent, the medium is changed to a serum-free Dulbecco's modified MEM medium (Invitrogen) containing 5 μg/mL insulin, 5 μg/mL transferin, and 5 ng/mL selenious acid. One day later, the medium is changed to a serum-free Dulbecco's modified MEM medium (80 μl) containing 10 ng/mL IGF-II (Sigma) and 50 μg/mL L-ascorbic acid (Sigma), and a ten times concentration of a test compound (10 μl) is added thereto. Thirty minutes later, 25 ng/mL TGF-β (R&D System: 10 μL) is added to the medium, and the cells are cultured for about 44 hr. Twenty four hours before the termination of the culturing, ^3H-labeled proline (Amersham: 1 μCi) is added so as to be taken into collagen in the cells. When the culturing is terminated, 30% trichloroacetic acid (50 μL) is added to the medium. After leaving for 20 min, proteins are precipitated by centrifugation at 3000 rpm for 10 min. The supernatant is removed, and the residue is twice washed with 200 μL of a washing solution (ethanol:ether=3:1). The precipitate is air-dried, and the washing solution is sufficiently removed. After addition of 60 μL of a collagenase solution (2 mg/mL collagenase VII (Sigma), 50 mM Tris-HCl (pH 7.4), 5 mM CaCl2), the resulting mixture is treated at 37° C. for 2 hr to decompose collagen. Then, 90 μL of 15% trichloroacetic acid and 5% tannic acid are added thereto. The resulting mixture is left for 20 min and then centrifuged at 3000 rpm for 10 min. The supernatant (50 μL) is transferred to LumaPlate (PerkinElmer Lifescience) and is air-dried. Then, the amount of ^3H is measured by a Top Count.

pIC50: −log10 of the molar value. Read-outs that look alike come from different tables or passages of the source.

One may read the pIC50 as −log10 of the IC50, conventionally taken in molar units. For `Cc1cccc(-c2[nH]c(C(C)C)nc2-c2cccc(-c3ccc(C(=O)NN4CCN(C)CC4)cc3)c2)n1` [Example 48, N-(4-Methylpiperazin-1-yl)-4-{3-[2-isopropyl-5-(6-methylpyridin-2-yl)-1H-imidazol-4-yl]phenyl}benzamide], the pIC50 in the series on NRK-49F cells (Rattus norvegicus) was 5.83. Consider `Cc1cccc(-c2nc(C(C)C)[nH]c2-c2ccc(F)c(-c3ccc(CN4CCOCC4)cc3)c2)n1` [Example 109], for which the pIC50 in the series with NRK-49F cells is 6.89. Regarding `Cc1cccc(-c2cn(C(C)C)nc2-c2ccc(F)c(-c3cn[nH]c3)c2)n1` [Example 112, 2-{5-[4-Fluoro-3-(1H-pyrazol-4-yl)phenyl]-2-isopropyl-1H-pyrazol-4-yl}-6-methylpyridine], the pIC50 in the series with NRK-49F cells was 7.52. As to `Cc1cccc(-c2[nH]c(C(C)C)nc2-c2ccc(F)c(-c3ccc(OCCN4CCCCC4)cc3)c2)n1` [Example 117, 2-{4-[6-Fluoro-4′-(2-piperidin-1-ylethoxy)-1,1′-biphenyl-3-yl]-2-isopropyl-1H-imidazol-5-yl}-6-methylpyridine], in the series on NRK-49F cells (Rattus norvegicus), the negative-log IC50 (pIC50) is 5.93.

As to `CNS(=O)(=O)c1ccc(-c2cc(-c3c[nH]nc3-c3cccc(C)n3)ccc2F)cc1` [Example 156, 2′-Fluoro-N-methyl-5′-[3-(6-methylpyridin-2-yl)-1H-pyrazol-4-yl]-1,1′-biphenyl-4-sulfonamide], the pIC50 in the series on NRK-49F cells (Rattus norvegicus) is 7.00.

A word on the melting point: it is the temperature of the solid-liquid transition. `Cc1cccc(-c2n[nH]cc2-c2ccc(F)c(-c3csc(C(C)(C)O)n3)c2)n1` [Example 178, 2-(4-{2-Fluoro-5-[3-(6-methylpyridin-2-yl)-1H-pyrazol-4-yl]phenyl}-1,3-thiazol-2-yl)propan-2-ol] yielded a melting point of 78 to 80 °C. With `Cc1cccc(-c2n[nH]cc2-c2ccc(F)c(-c3csc(CO)n3)c2)n1` [Example 182, (4-{2-Fluoro-5-[3-(6-methylpyridin-2-yl)-1H-pyrazol-4-yl]phenyl}-1,3-thiazol-2-yl)methanol], the melting point is 89 to 92 °C. For the compound `Cc1cccc(-c2n[nH]cc2-c2ccc(F)c(-c3ncc(C(C)(C)O)cn3)c2)n1` [Example 183, 2-(2-{2-Fluoro-5-[3-(6-methylpyridin-2-yl)-1H-pyrazol-4-yl]phenyl}pyrimidin-5-yl)propan-2-ol], the melting point was 162 °C. Compound `Cc1cccc(-c2n[nH]cc2-c2ccc(F)c(-c3cn(CCN4CCOCC4)cn3)c2)n1` [Example 185, 4-[2-(4-{2-Fluoro-5-[3-(6-methylpyridin-2-yl)-1H-pyrazol-4-yl]phenyl}-1H-imidazol-1-yl)ethyl]morpholine] gave a melting point of 144 to 145 °C. `Cc1cccc(-c2n[nH]cc2-c2ccc(F)c(-c3cn(CCN(C)C)cn3)c2)n1` [Example 186, 2-(4-{2-Fluoro-5-[3-(6-methylpyridin-2-yl)-1H-pyrazol-4-yl]phenyl}-1H-imidazol-1-yl)-N,N-dimethylethylamine]: the melting point fell in the range of 130 to 131 °C. On the same count and under the same terms, the value for `Cc1cccc(-c2n[nH]cc2-c2ccc(F)c(-c3ccc(N4CCN(C)CC4)nc3)c2)n1` [Example 187, 1-(5-{2-Fluoro-5-[3-(6-methylpyridin-2-yl)-1H-pyrazol-4-yl]phenyl}pyridin-2-yl)-4-methylpiperazine] was 86 °C.

The compound `Cc1cccc(-c2n[nH]cc2-c2ccc(F)c(-c3ccc(N4CCN(C)CC4)cn3)c2)n1` [Example 188, 1-(6-{2-Fluoro-5-[3-(6-methylpyridin-2-yl)-1H-pyrazol-4-yl]phenyl}pyridin-3-yl)-4-methylpiperazine] had a melting point of 97 °C. For the compound `Cc1cccc(-c2n[nH]cc2-c2ccc(F)c(-c3ccc(S(C)(=O)=O)cc3)c2)n1` [Example 191, 2-{4-[6-Fluoro-4′-(methylsulfonyl)-1,1′-biphenyl-3-yl]-1H-pyrazol-3-yl}-6-methylpyridine], the melting point lay within 100 to 102 °C.

As to `Cc1cccc(-c2n[nH]cc2-c2ccc(F)c(-c3ccc(NC(=O)NN4CCOCC4)cc3)c2)n1` [Example 192, N-{2′-Fluoro-5′-[3-(6-methylpyridin-2-yl)-1H-pyrazol-4-yl]-1,1′-biphenyl-4-yl}-N′-morpholine-4-ylurea], the melting point lay within 131 to 133 °C. On to `Cc1cccc(-c2n[nH]cc2-c2ccc(F)c(-c3ccc[nH]3)c2)n1` [Example 193, 2-{4-[4-Fluoro-3-(1H-pyrrol-2-yl)phenyl]-1H-pyrazol-3-yl}-6-methylpyridine], for which the melting point fell in the range of 141 to 142 °C.

`Cc1cccc(-c2n[nH]cc2-c2ccc(F)c(-c3ccc(O)cc3)c2)n1` [Example 197, 2′-Fluoro-5′-[3-(6-methylpyridin-2-yl)-1H-pyrazol-4-yl]-1,1′-biphenyl-4-ol] showed a melting point of 72 to 74 °C. Regarding `Cc1cccc(-c2nn(C)cc2-c2ccc(F)c(-c3ccc(S(C)(=O)=O)cc3)c2)n1` [Example 199, 2-{4-[6-Fluoro-4′-(methylsulfonyl)-1,1′-biphenyl-3-yl]-1-methyl-1H-pyrazol-3-yl}-6-methylpyridine], the melting point lay within 66 to 67 °C.

For `Cc1cccc(-c2nn(C(C)C)cc2-c2ccc(F)c(-c3ccc(S(C)(=O)=O)cc3)c2)n1` [Example 200, 2-{4-[6-Fluoro-4′-(methylsulfonyl)-1,1′-biphenyl-3-yl]-1-isopropyl-1H-pyrazol-3-yl}-6-methylpyridine], the melting point was 172 to 173 °C. On to `Cn1cc(-c2cc(-c3c[nH]nc3-c3ccccn3)ccc2F)cn1` [Example 201, 2-{4-[4-Fluoro-3-(1-methyl-1H-pyrazol-4-yl)phenyl]-1H-pyrazol-3-yl}pyridine], for which the melting point was 134 to 136 °C. Still for that read-out and setting: to `CS(=O)(=O)c1ccc(-c2cc(-c3c[nH]nc3-c3cccc(C4CC4)n3)ccc2F)cc1` [Example 203, 2-Cyclopropyl-6-{4-[6-fluoro-4′-(methylsulfonyl)-1,1′-biphenyl-3-yl]-1H-pyrazol-3-yl}pyridine] belongs 102 to 104 °C. Consider `NS(=O)(=O)c1ccc(-c2cc(-c3c[nH]nc3-c3cccc(C4CC4)n3)ccc2F)cc1` [Example 204, 5′-[3-(6-Cyclopropylpyridin-2-yl)-1H-pyrazol-4-yl]-2′-fluoro-1,1′-biphenyl-4-sulfonamide], for which the melting point is 225 to 226 °C.

The compound `Cc1cccc(-c2n[nH]cc2-c2ccc(F)c(-c3cc[nH]n3)c2)n1` [Example 205, 2-{4-[4-Fluoro-3-(1H-pyrazol-3-yl)phenyl]-1H-pyrazol-3-yl}-6-methylpyridine] gave a melting point of 105 to 108 °C.

`Cc1cccc(-c2n[nH]cc2-c2ccc(F)c(-c3c[nH]c(C(O)CO)n3)c2)n1` (centres unmarked) [Example 207, 1-(4-{2-Fluoro-5-[3-(6-methylpyridin-2-yl)-1H-pyrazol-4-yl]phenyl}-1H-imidazol-2-yl)ethane-1,2-diol]: the melting point was in the range of 125 to 127 °C.

With `Cc1cccc(-c2n[nH]cc2-c2ccc(F)c(-c3c[nH]c(CO)n3)c2)n1` [Example 208, (4-{2-Fluoro-5-[3-(6-methylpyridin-2-yl)-1H-pyrazol-4-yl]phenyl}-1H-imidazol-2-yl)methanol], the melting point fell in the range of 243 to 246 °C. Compound `Cc1cccc(-c2n[nH]cc2-c2ccc(F)c(-c3c[nH]c(CC(C)(C)O)n3)c2)n1` [Example 210, 1-(4-{2-Fluoro-5-[3-(6-methylpyridin-2-yl)-1H-pyrazol-4-yl]phenyl}-1H-imidazol-2-yl)-2-methylpropan-2-ol] showed a melting point of 136 to 140 °C.

`Cc1cccc(-c2n[nH]cc2-c2ccc(F)c(-c3cn4c(n3)[S+]([O-])CC4)c2)n1` (centres unmarked) [Example 211, 6-{2-Fluoro-5-[3-(6-methylpyridin-2-yl)-1H-pyrazol-4-yl]phenyl}-2,3-dihydroimidazo[2,1-b][1,3]thiazole 1-oxide]: the melting point is 140 to 144 °C. In the case of `Cc1cccc(-c2n[nH]cc2-c2ccc(F)c(-c3c[nH]c(CCN4CCOCC4)n3)c2)n1` [Example 213, 4-[2-(4-{2-Fluoro-5-[3-(6-methylpyridin-2-yl)-1H-pyrazol-4-yl]phenyl}-1H-imidazol-2-yl)ethyl]morpholine], the melting point was 239 to 240 °C.

In turn, `Cc1cccc(-c2nc(N)sc2-c2ccc(F)c(-c3ccc(S(C)(=O)=O)cc3)c2)n1` [Example 215, 5-[6-Fluoro-4′-(methylsulfonyl)-1,1′-biphenyl-3-yl]-4-(6-methylpyridin-2-yl)-1,3-thiazol-2-amine] showed a melting point of 202 to 204 °C. Compound `Cc1cccc(-c2nc(N)sc2-c2ccc(F)c(-c3ccc(S(N)(=O)=O)cc3)c2)n1` [Example 216, 5′-[2-Amino-4-(6-methylpyridin-2-yl)-1,3-thiazol-5-yl]-2′-fluoro-1,1′-biphenyl-4-sulfonamide] had a melting point of 190 to 192 °C.
